Laboratory results as given in ChEMBL document CHEMBL1201862, “PubChem BioAssay data set” (2004).
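Interpolation was linear, between the two tested concentrations surrounding the appropriate level; five concentrations were tested over 48 hours in 96-well plates. GI50 marks 50% less growth.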 Calls of active or inactive are those of the source. No stated cut-off is given here; in the data, active = GI50 up to about 1.1 µM and inactive = higher.

Key:
Assay in all cases: NCI-60 cell line screen, 48 h
[1] = system: ACHN
[2] = system: CCRF-CEM
[3] = system: COLO 205
[4] = system: HCC 2998
[5] = system: HCT-116
[6] = system: HCT-15
[7] = system: HL-60
[8] = system: HOP-92
[9] = system: HT-29
[10] = system: Hs-578T
[11] = system: LOX IMVI
[12] = system: Malme-3M
[13] = system: NCI-H23
[14] = system: OVCAR-8
[15] = system: RXF 393
[16] = system: SF-295
[17] = system: SK-MEL-28
[18] = system: SR
[19] = system: SW-620
[20] = system: T47D

Measured: GI50

COc1cc2nncc(SCc3ccc(Cl)c(Cl)c3)c2cc1OC
> 31.3 µM: [6]
inactive: [1] > 48.4 µM | [2] > 100 µM | [3] > 100 µM | [4] > 100 µM | [5] > 100 µM | [7] > 50.8 µM | [8] > 45.8 µM | [9] > 100 µM | [10] 80 µM | [11] 26.2 µM | [12] > 100 µM | [13] > 100 µM | [14] > 100 µM | [15] 35.3 µM | [16] > 69.3 µM | [17] > 100 µM | [18] > 100 µM | [19] > 100 µM | [20] 34 µM

CN(C)CCCNC(=O)c1cn2c(ccc3sc4ccccc4c(=O)c32)n1
2.2 µM: [6]
inactive: [1] 11.8 µM | [2] 2.05 µM | [3] 3.77 µM | [4] 11.7 µM | [5] 1.53 µM | [7] 3.6 µM | [8] 2.15 µM | [9] 1.3 µM | [10] 15.7 µM | [11] 1.41 µM | [12] 8.99 µM | [13] 13.4 µM | [14] 4.85 µM | [15] 5.94 µM | [16] 5.36 µM | [17] 5.46 µM | [18] 1.95 µM | [19] 1.51 µM | [20] 18.3 µM

Cc1ccc(C2=Nn3c(nc4sc(-c5ccccc5)cc4c3=O)SC2)cc1
inactive: [1] > 100 µM | [2] > 100 µM | [3] > 100 µM | [4] > 100 µM | [5] > 100 µM | [7] > 100 µM | [8] > 100 µM | [9] > 100 µM | [10] > 100 µM | [11] > 100 µM | [12] > 100 µM | [13] > 100 µM | [14] > 100 µM | [15] > 10 µM | [16] > 100 µM | [17] > 100 µM | [18] > 100 µM | [19] > 100 µM | [20] > 100 µM
> 100 µM: [6]
